Experiment: xn = mol fraction of the nth substance listed

CCCC[N+]1(C)CCCC1.F[B-](F)(F)F + CC1COC(=O)O1 + CCCC[N+]1(C)CCCC1.O=S(=O)([N-]S(=O)(=O)C(F)(F)F)C(F)(F)F
293.15 K, 100 kPa, x2 = 0.4706, x3 = 0.05882
Settings | electrical conductivity [S/m] | viscosity [mPa·s]
– | 0.96 | 7.6

CC(=O)[O-].CCC[N+]1(C)CCN(C)CC1 + CC#N
Settings | electrical conductivity [S/m]
298 K, 101 kPa, x2 = 0.791 | 1.76

CCO + CC(=O)[O-].CC[n+]1ccn(C)c1
101 kPa, x1 = 1
Settings | viscosity [mPa·s]
318.15 K | 0.755
338.15 K | 0.543

CC(=O)[O-].CC[NH2+]CC + CC(C)=O
298.15 K, 101 kPa
Settings | electrical conductivity [S/m] | viscosity [mPa·s]
x1 = 0.0095 | 0.001 | –
x1 = 0.0238 | 0.033 | –
x1 = 0.0523 | 0.085 | –
x1 = 0.0729 | 0.131 | –
x1 = 0.098 | – | 0.734
x1 = 0.0983 | 0.171 | –
x1 = 0.194 | – | 1.092
x1 = 0.1981 | 0.328 | –
x1 = 0.2979 | 0.427 | –
x1 = 0.299 | – | 2.01
x1 = 0.401 | 0.479 | –
x1 = 0.402 | – | 3.5
x1 = 0.4945 | 0.505 | –
x1 = 0.5 | – | 5.74
x1 = 0.599 | – | 8.92
x1 = 0.6022 | 0.459 | –
x1 = 0.701 | – | 14.91
x1 = 0.7021 | 0.427 | –
x1 = 0.7971 | 0.387 | –
x1 = 0.802 | – | 24.3
x1 = 0.9002 | 0.341 | –
x1 = 0.903 | – | 38.6
x2 = 0.003 | – | 58.7
